Assay results taken from ChEMBL document CHEMBL5260828, “Amphiphilic glycoconjugates as potential anti-cancer chemotherapeutics” (Eur J Med Chem, 2018).
In brackets after ≈: the same amount, converted by molar mass.

What was measured:
[1] = Inhibition of cell adhesion of human KM12-HX cells to TNF-alpha stimulated HUVEC cells incubated for 30 mins with HUVEC cells followed by [3H]thymidine labeled KM12-HX cells addition measured after 30 mins by radioactivity assay; format: functional, cell-based
[2] = Antimitotic activity against human U373 cells assessed as inhibition of cell proliferation by measuring inhibitory dose incubated for 48 hrs by [3H]-thymidine incorporation based liquid scintillation counting method; format: functional; conditions: U373 MG, read-out: ID50 (the source's name)
[3] = Cytotoxicity against mouse NIH/3T3 cells assessed as cell growth inhibition incubated for 3 days by MTT assay; format: toxicity, cell-based, NIH3T3
[4] = system: MCF-10A; experiment: Cytotoxicity against human MCF-10A cells assessed as cell growth inhibition incubated for 3 days by MTT assay; format: functional, cell-based; conditions: 72 h
[5] = Antimitotic activity against rat Astrocytoma cell assessed as inhibition of cell proliferation by measuring inhibitory dose by [3H]-thymidine incorporation based […]; format: functional; conditions: read-out: ID50 (the source's name)
[6] = Antimitotic activity against rat RN 22 cells assessed as inhibition of cell proliferation by measuring inhibitory dose by [3H]-thymidine incorporation based […]; format: functional; conditions: read-out: ID50 (the source's name)
[7] = Antimitotic activity against rat Astrocyte cells assessed as inhibition of cell proliferation by measuring inhibitory dose by [3H]-thymidine incorporation based […]; format: functional; conditions: read-out: ID50 (the source's name)
[8] = system: N2a; experiment: Antimitotic activity against mouse Neuro2a cells assessed as inhibition of cell proliferation by measuring inhibitory dose by [3H]-thymidine incorporation based […]; format: functional; conditions: read-out: ID50 (the source's name)
[9] = system: T-24; experiment: Cytotoxicity against human T24 cells assessed as cell viability; format: functional
[10] = system: MKN-45; experiment: Cytotoxicity against human MKN-45 cells; format: functional, cell-based
[11] = system: T-24; experiment: Cytotoxicity against human T24 cells assessed as cell viability at 12.5 uM in presence of doxorubicin; format: functional; conditions: read-out: Activity
[12] = system: MOLT-4; experiment: Cytotoxicity against human MOLT-4 cells; format: functional, cell-based
[13] = Cytotoxicity against human HEK293F cells; format: toxicity, cell-based
[14] = system: MG-63; experiment: Cytotoxicity against human MG-63 cells assessed as inhibition of cell growth incubated for 30 mins by MTT colorimetric assay; format: functional, cell-based; conditions: MG-63, 0.5 h
[15] = system: SMMC-7721; experiment: Cytotoxicity against human SMMC-7721 cells assessed as inhibition of cell growth incubated for 30 mins by MTT colorimetric assay; format: functional, cell-based; conditions: SMMC-7721, 0.5 h
[16] = system: MCF7; experiment: Cytotoxicity against human MCF7 cells assessed as inhibition of cell growth incubated for 30 mins by MTT colorimetric assay; format: functional, cell-based; conditions: MCF7, 0.5 h
[17] = system: BV-173; experiment: Cytotoxicity against human BV-173 cells assessed as inhibition of cell growth incubated for 72 hrs by MTT assay; format: functional, cell-based; conditions: BV-173, 72 h
[18] = system: MCF7; experiment: Antiproliferative activity against human MCF7 cells assessed as cell growth inhibition by measuring minimum inhibitory concentration incubated for 48 hrs by MTT assay; format: functional
[19] = Cytotoxicity against human JMSU-1 cells assessed as inhibition of cell growth incubated for 72 hrs by MTT assay; format: functional, cell-based; conditions: JMSU-1, 72 h
[20] = system: HL-60; experiment: Cytotoxicity against human HL-60 cells assessed as inhibition of cell growth incubated for 72 hrs by MTT assay; format: functional, cell-based; conditions: HL-60, 72 h
[21] = Cytotoxicity against human SKW-3 cells assessed as inhibition of cell growth incubated for 72 hrs by MTT assay; format: functional, cell-based; conditions: SKW3, 72 h
[22] = system: HeLa; experiment: Cytotoxicity against human HeLa cells assessed as inhibition of cell growth incubated for 24 hrs by MTT assay; format: functional, cell-based
[23] = system: MDA-MB-231; experiment: Cytotoxicity against human MDA-MB-231 cells assessed as cell growth inhibition incubated for 48 hrs by crystal violet staining based spectrofluorimeter assay; format: functional; conditions: MDA-MB-231, 48 h
[24] = system: Ca-Ski; experiment: Cytotoxicity against human Ca-Ski cells assessed as inhibition of cell growth incubated for 24 hrs by MTT assay; format: functional, cell-based
[25] = system: MDA-MB-231; experiment: Inhibition of cell migration in human MDA-MB-231 cells incubated upto 48 hrs by inverted microscopic analysis; format: functional

**Q.** With `CCCCCCCCCCCCCCC(CCCCCCCCCCCCCC)CO[C@@H]1O[C@H](CO)[C@@H](O[C@@H]2O[C@H](CO)[C@H](O)[C@H](OS(=O)(=O)O)[C@H]2O)[C@H](O[C@@H]2O[C@@H](C)[C@@H](O)[C@@H](O)[C@@H]2O)[C@H]1O` as the compound, how does the IC50 [1] read?
**A.** 300 µM

**Q.** Which IC50 [2] does the source give for `CCCCCCCCO[C@H]1O[C@H](COCC(CO)(CO)CO)[C@@H](O)[C@H](O)[C@H]1NC(C)=O` here?
**A.** 43 µM

**Q.** For `C/C=C(\C)C(=O)O[C@@H]1[C@@H](O)[C@@H]2O[C@H]3[C@H](O[C@@H](CCCCC)CCCCCCC(=O)CCC(=O)OC[C@@H](O2)[C@H]1OC(=O)/C=C/c1ccccc1)O[C@H](C)[C@H](OC(C)=O)[C@@H]3O`, which IC50 at 3 days [3] is on record?
**A.** 0.0168 µM

**Q.** And the IC50 [4]?
**A.** 0.0054 µM

**Q.** Which IC50 [5] does the source give for `CO[C@@H]1O[C@H](CO)[C@@H](O[C@@H]2O[C@H](CO)[C@H](O)[C@H](O[C@H]3O[C@H](CO)[C@H](O)[C@H](O)[C@H]3NC(C)=O)[C@H]2O)[C@H](O[C@@H]2O[C@@H](C)[C@@H](O)[C@@H](O)[C@@H]2O)[C@H]1O` here?
**A.** 24 µM

**Q.** And the IC50 [6]?
**A.** 24 µM

**Q.** What about the IC50 [7] of the same compound?
**A.** 24 µM

**Q.** What about the IC50 [8] of the same compound?
**A.** 24 µM

**Q.** Which results are given for `CCCCCCCC(=O)O[C@H]1[C@H](OC[C@H](O)[C@@H](O)[C@@H](O)[C@H](O)[C@H](O)CO)O[C@H](COC(=O)CCCCC)[C@@H](OC(=O)CCCCC)[C@@H]1OC(=O)CCCCC`?
**A.** Activity [9]: 57.3%; IC50 [10]: 16 µM; viability at 12.5 µM [11]: 36.9%; IC50 [12]: 8.1 µM; IC50 [13]: 21.8 µM

**Q.** Which IC50 [14] does the source give for `CCCCC[C@@H](CCCCCCCCCC(=O)O[C@H]1[C@H](O[C@@H](CNc2ccc(OC)cc2)[C@@H](O)[C@H](O)[C@H](O)CO)O[C@@H](C)[C@H](OC(=O)[C@@H](C)[C@@H](C)O)[C@H]1O[C@@H]1O[C@@H](C)[C@H](O)[C@@H](O)[C@H]1O)O[C@@H]1OC[C@@H](O)[C@H](O)[C@H]1O[C@@H]1O[C@H](CO)[C@@H](O)[C@H](O)[C@H]1O[C@@H]1O[C@@H](C)[C@H](OC(=O)[C@H](C)[C@@H](C)O)[C@@H](O[C@@H]2O[C@@H](C)[C@H](O)[C@@H](O)[C@H]2O)[C@H]1OC(=O)CCCCCCCCC[C@@H](O)CCC` here?
**A.** 10.9 µg/mL (≈ 5.9 µM)

**Q.** And the IC50 [15]?
**A.** 9.78 µg/mL (≈ 5.29 µM)

**Q.** What about the IC50 [16] of the same compound?
**A.** 8.72 µg/mL (≈ 4.72 µM)

**Q.** Which IC50 [17] does the source give for `CCCCCCCCCC[C@@H](CC(=O)O)OC(=O)C[C@H](CCCCCCCCCC)O[C@@H]1O[C@@H](C)[C@H](O)[C@@H](O)[C@H]1O` here?
**A.** 50 µM

**Q.** What about the MIC [18] of the same compound?
**A.** 6.25 µg/mL (≈ 10.6 µM)

**Q.** What about the IC50 [19] of the same compound?
**A.** 60 µM

**Q.** And the IC50 [20]?
**A.** 67 µM

**Q.** What about the IC50 [21] of the same compound?
**A.** 54 µM

**Q.** What does the source list for `CC(=O)OC[C@H]1O[C@H]2O[C@@H](C)CCCCCC/C=C\CCCCCCCC(=O)O[C@@H]3[C@@H](O)[C@H](O[C@@H]2[C@@H](O)[C@@H]1O)O[C@H](COC(C)=O)[C@H]3O`?
**A.** IC50 [22]: 12.2 µg/mL (≈ 17.8 µM); IC50 [23]: 21.7 µM; IC50 [24]: 25.3 µg/mL (≈ 36.8 µM); inhibition (INH) [25]: 41.5%
